Experimental data from patent US12116370B2, “Condensed heterocyclic compound having a bridgehead nitrogen atom or salt thereof, agricultural or horticultural insecticide comprising the compound, and method for using the insecticide” (Nihon Nohyaku Co., Ltd., priority 2019, dated 2024).

Tests used:
Type in all cases: in vivo
Laodelphax striatellus = experiment: Insecticidal test on Laodelphax striatellus; settings: in Oryza sativa, 192 h, read-out: insecticidal efficacy (corrected mortality rate) activity level
Text: The condensed heterocyclic compounds having a bridgehead nitrogen atom represented by the general formula (1) of the present invention or salts thereof were separately dispersed in water and diluted to 500 ppm. Rice plant seedlings (variety: Nihonbare) were dipped in the agrochemical dispersions for 30 seconds. After air-dried, each seedling was put into a separate glass test tube and inoculated with ten 3rd-instar larvae of L. striatellus, and then the glass test tubes were capped with cotton plugs. At 8 days after the inoculation, the numbers of surviving larvae and dead larvae of L. striatellus were counted, the corrected mortality rate was calculated according to the formula shown below, and the insecticidal efficacy was evaluated according to the criteria of Test Example 1.

Plutella xylostella = experiment: Insecticidal test on Plutella xylostella; settings: in Brassica rapa, 144 h, read-out: insecticidal efficacy (mortality rate) activity level
Text: Adults of P. xylostella were released onto Chinese cabbage seedlings and allowed to lay eggs thereon. At 2 days after the release of the adults, the Chinese cabbage seedlings with laid eggs were dipped for about 30 seconds in agrochemical formulations diluted to 500 ppm, each of which contained a different kind of condensed heterocyclic compound having a bridgehead nitrogen atom represented by the general formula (1) of the present invention as an active ingredient. After air-dried, the seedlings were kept in a thermostatic chamber at 25° C. At 6 days after the dip treatment, the number of hatched larvae per plot was counted, the mortality rate of P. xylostella was calculated according to the formula shown below, and the insecticidal efficacy was evaluated according to the criteria of Test Example 1. This test was conducted in triplicate using 10 adults of P. xylostella per plot.

[1] = system: L1 stage larvae of H. contortus; experiment: Larval motility assay on Haemonchus contortus; settings: 96 h, 4 days, relative to DMSO only, read-out: percent motility inhibition
Procedure: Dimethyl sulfoxide (DMSO) diluted solutions of various compounds of the present invention were added at the final concentration of 50 ppm to the wells of a 96-well plate containing a predetermined conditioned medium. Twenty L1 stage larvae of H. contortus were introduced into each well of the 96-well plate. The plate was allowed to stand for 4 days, and then larval motility was examined. The percent motility inhibition in the wells of each treatment was calculated relative to the wells of treatment with DMSO only.

[2] = system: L1 stage larvae of D. immitis; experiment: Larval motility assay on Dirofilaria immitis; settings: 72 h, 3 days, relative to DMSO only, read-out: percent motility inhibition
Procedure: Five hundred L1 stage larvae of D. immitis were diluted in a predetermined conditioned medium and introduced into each well of a 96-well plate. DMSO diluted solutions of various compounds of the present invention were added at the final concentration of 50 ppm to the wells of the 96-well plate. The plate was allowed to stand for 3 days, and then larval motility was examined. The percent motility inhibition in the wells of each treatment was calculated relative to the wells of treatment with DMSO only.

[3] = system: adults of Ctenocephalides felis; experiment: Assay for oral parasiticidal activity against adults of Ctenocephalides felis; settings: read-out: mortality rate
Procedure: Newly-emerged adults of C. felis were placed into test cages (10 adults per test cage). DMSO diluted solutions of various compounds of the present invention were added to aliquots of bovine blood at the final concentration of 50 ppm and orally administered to the adults of C. felis using a feeder. The mortality rate was examined on the following day. Aberrant adults were regarded as the dead.

CCS(=O)(=O)c1cc(/C(Br)=N/OCCSC)cnc1-c1nc2cc(C(F)(F)F)ccn2n1 [Compound 3-19, 5-ethylsulfonyl-N-(2-methylthioethoxy)-6-(7-trifluoromethyl-[1,2,4]triazolo[1,5-a]pyridin-2-yl)nicotinimidoyl bromide]
mortality at 500 ppm (Laodelphax striatellus): 100% | mortality at 500 ppm (Plutella xylostella): 100%

CCS(=O)(=O)c1cc(/C(=N/OCCSC)c2ccccc2)cnc1-c1nc2cc(C(F)(F)F)ccn2n1 [Compound 3-46, (5-ethylsulfonyl-6-(7-trifluoromethyl-[1,2,4]triazolo[1,5-a]pyridin-2-yl)pyridin-3-yl)phenylmethanone O-(2-methylthioethyl)oxime]
mortality at 500 ppm (Laodelphax striatellus): 100% | mortality at 500 ppm (Plutella xylostella): 100%

CCS(=O)(=O)c1cc(/C(=N/OCCSC)OC)cnc1-c1nc2cc(C(F)(F)F)ccn2n1 [Compound 3-1, methyl 5-ethylsulfonyl-N-(2-methylthioethoxy)-6-(7-(trifluoromethyl)-[1,2,4]triazolo[1,5-a]pyridin-2-yl)nicotinimidate]
mortality at 500 ppm (Laodelphax striatellus): 100% | mortality at 500 ppm (Plutella xylostella): 100%

CCS(=O)(=O)c1ccc(/C=N/OCC(F)(F)F)nc1-c1nc2cc(C(F)(F)C(F)(F)F)ncn2n1 [Compound 2-42, 5-ethylsulfonyl-6-(7-pentafluoroethyl-[1,2,4]triazolo[1,5-c]pyridin-2-yl)picolinaldehyde O-(2,2,2-trifluoroethyl)oxime]
mortality at 500 ppm (Laodelphax striatellus): 100% | mortality at 500 ppm (Plutella xylostella): 100%

CCS(=O)(=O)c1cc(/C(=N/OCCSC)C2CC2)cnc1-c1nc2cc(C(F)(F)F)ccn2n1 [Compound 3-28]
mortality at 500 ppm (Laodelphax striatellus): 100% | mortality at 500 ppm (Plutella xylostella): 100%

CCS(=O)(=O)c1cc(/C=N/OCC(F)F)cnc1-c1nc2cc(C(F)(F)F)ccn2n1 [Compound 1-7]
mortality at 500 ppm (Laodelphax striatellus): 100% | mortality at 500 ppm (Plutella xylostella): 100% | inhibition at 50 ppm [1]: ≥ 50% | inhibition at 50 ppm [2]: ≥ 50% | mortality at 50 ppm [3]: ≥ 50%
